Experimental data reported in patent US9326520B2, “Pest repellent comprising geranylacetone” (The University Court of the University of Aberdeen, priority 2006, dated 2016).
Several values for one entry are separate records, joined by “and”; a condition that tells them apart may be missing. Equal values may be shown once. Entries after “also recorded” stand apart in the source; their conditions may differ.

Experiments:
Anopheles gambiae = assay: Laboratory-based repellency test, treated forearm in cage, protective efficacy (PE); format: in vivo; settings: An. gambiae, landings over 3 min
Protocol: (§1) The mosquitoes were laboratory-reared using standard conditions at ICIPE, Duduville. 5-7 day old female mosquitoes that had been starved for 18 h but previously fed on 6% glucose solution were used. Eighteen cages (50×50×50 cm) were used with 25 female mosquitoes in each. Six human volunteers with no or little allergic reaction to bites were selected. Test solutions (0.5 ml in acetone) were applied to a volunteer's forearms and the hand was covered with a glove. Acetone alone (0.5 ml) served as a control on the other arm. The control arm was inserted into a cage and the number of landings were recorded over 3 min. The treated arm was then inserted as above. Repellency data was expressed as protective efficacy (PE) and was calculated by using the formula PE=(% control mean−% test mean/% control mean). The data were transformed and subjected to an ANOVA.
(§2) Each compound was tested at concentrations ranging from 0.0001% to 10%. […]

Culex quinquefasciatus = assay: as above; format: in vivo; settings: for Mean % P.E ± S.E: landings over 3 min
Protocol: as §1, §2

C. impunctatus midges = assay: Field trial of repellency (WHO protocol), compounds on stockings worn on forearms of volunteers; format: in vivo, Culicoides impunctatus; settings: for repellency compared with DEET at 1%: over 1 min, single compounds at 1%
Protocol: FIG. 6. Repellency of EAG-active human-derived compounds applied to the forearms of volunteers and tested on Culicoides impuctatus midges in the field. a) over 1 minute and b) over 5 minutes.
A field trial was made in the Ormsary estate, Argyllshire, during the summer 2005 in a region with an extremely high natural population of C. impunctatus. […] Compounds were applied to (nylon) stockings and worn on the forearms of volunteers and were tested at three concentrations in ethanol (1%, 0.01% and 0.0001%). All compounds and mixtures were compared against the WHO approved repellent diethyltoluamide (DEET) (1% and 40%).

[1] = system: Aedes aegypti host-seeking female mosquitoes; assay: Y-tube olfactometer: response of mosquitoes to hand of attractive volunteer with and without chemical; format: in vivo
Text: FIG. 5. […] (−1=1×10^−1 g μL^−1; −2=1×10^−2 g μL^−1, etc). Back transformed means+95% confidence intervals (calculated for a binomial distribution) from the logistic scale are shown.
A convenient bioassay was established following work by Geier et al. (1999)^17 using a Y-tube olfactometer in which mosquitoes, Ae. aegypti, could “choose” between volatile skin emanations and air alone, the “choice” being expressed as flight activity or relative attraction. Initially, the source of skin emanations was from individual hands of a series of human volunteers.
These compounds (from Sigma Aldrich) were tested individually at different concentrations in the olfactometer against Ae. aegypti. The upwind flight activity, relative attraction and probing activity (feeding) of the mosquitoes to the hand of an attractive volunteer with and without the chemicals was recorded.

Ae. aegypti = settings: H. D. Douglas et al. J. Med. Entomol. 42(4): 647-651 (2005); cited from earlier work
[2] = hand of attractive volunteer with chemical vs without, data not shown

CC(=O)CCC=C(C)C [6-methyl-5-hepten-2-one, 6-Methyl-5-hepten-2-one]
Mean % P.E ± S.E (Anopheles gambiae; 0.0001 % Conc. in acetone): 0.85 ± 3.9% | Mean % P.E ± S.E (Anopheles gambiae; 0.001 % Conc. in acetone): 1.57 ± 11.2% | Mean % P.E ± S.E (Anopheles gambiae; 0.01 % Conc. in acetone): 19.2 ± 5.5% | Mean % P.E ± S.E (Anopheles gambiae; 0.1 % Conc. in acetone): 34.07 ± 6.6% | Mean % P.E ± S.E (Anopheles gambiae; 1 % Conc. in acetone): 35.73 ± 8.7% | Mean % P.E ± S.E (Anopheles gambiae; 10 % Conc. in acetone): 74.75 ± 6.1% | Mean % P.E ± S.E (Culex quinquefasciatus; 0.0001 % Conc. in acetone): 8.0% | Mean % P.E ± S.E (Culex quinquefasciatus; 0.001 % Conc. in acetone): 12.7% | Mean % P.E ± S.E (Culex quinquefasciatus; 0.01 % Conc. in acetone): 21.8% | Mean % P.E ± S.E (Culex quinquefasciatus; 0.1 % Conc. in acetone): 30.1% | Mean % P.E ± S.E (Culex quinquefasciatus; 1 % Conc. in acetone): 49.7 ± 2.9% | Mean % P.E ± S.E (Culex quinquefasciatus; 10 % Conc. in acetone): 100.0 ± 0% | repellency (C. impunctatus midges; 1 min time, 0.001%): significantly repellent | repellency (C. impunctatus midges; 1 min time, 0.01%): not repellent | repellency (C. impunctatus midges; 1 min time, 1%): strongly repellent | repellency compared with DEET at 1% (C. impunctatus midges): more effective than DEET; also recorded: significantly greater than DEET at 1% | repellency (C. impunctatus midges; over 5 min): repellent only at 1%

CCN(CC)C(=O)c1cccc(C)c1 [DEET, diethyltoluamide, reference compound]
Mean % P.E ± S.E (Anopheles gambiae; 0.001 % Conc. in acetone): 6.23 ± 1.7% | Mean % P.E ± S.E (Anopheles gambiae; 0.01 % Conc. in acetone): 20% and 20.65 ± 6.4% | Mean % P.E ± S.E (Anopheles gambiae; 0.1 % Conc. in acetone): 83% and 83.78 ± 3.9% | Mean % P.E ± S.E (Anopheles gambiae; 1 % Conc. in acetone): 100% and 100 ± 0% | Mean % P.E ± S.E (Anopheles gambiae; 10 % Conc. in acetone): 100% and 100 ± 0% | Mean % P.E ± S.E (Culex quinquefasciatus; 0.001 % Conc. in acetone): 7.6 ± 1.8% | Mean % P.E ± S.E (Culex quinquefasciatus; 0.01 % Conc. in acetone): 12.0 ± 1.7% | Mean % P.E ± S.E (Culex quinquefasciatus; 0.1 % Conc. in acetone): 76.9 ± 5.4% | Mean % P.E ± S.E (Culex quinquefasciatus; 1 % Conc. in acetone): 98.2 ± 1.1% | Mean % P.E ± S.E (Culex quinquefasciatus; 10 % Conc. in acetone): 100% and 100 ± 0%

CCCCCCCCCC=O [decanal]
ranking of treatments (repellency) (Culex quinquefasciatus): most effective treatment

CC(=O)CCC=C(C)CCC=C(C)C [geranylacetone, 6,10-dimethyl-5,9-undecadien-2-one]
Mean % P.E ± S.E (Anopheles gambiae; 0.001 % Conc. in acetone): 7.25 ± 9.5% | Mean % P.E ± S.E (Anopheles gambiae; 0.01 % Conc. in acetone): 11.17 ± 12.9% | Mean % P.E ± S.E (Anopheles gambiae; 0.1 % Conc. in acetone): 30.13 ± 11% | Mean % P.E ± S.E (Anopheles gambiae; 1 % Conc. in acetone): 76.97 ± 5.9% | Mean % P.E ± S.E (Anopheles gambiae; 10 % Conc. in acetone): 100% | Mean % P.E ± S.E (Anopheles gambiae; 10 % Conc. in acetone, listed as geranylacetonedecanal): 100 ± 0% | Mean % P.E ± S.E (Culex quinquefasciatus; 0.0001 % Conc. in acetone): 4.8% | Mean % P.E ± S.E (Culex quinquefasciatus; 0.001 % Conc. in acetone): 10% | Mean % P.E ± S.E (Culex quinquefasciatus; 0.01 % Conc. in acetone): 23.7% | Mean % P.E ± S.E (Culex quinquefasciatus; 0.1 % Conc. in acetone): 33.2 ± 4.5% | Mean % P.E ± S.E (Culex quinquefasciatus; 1 % Conc. in acetone): 84.1 ± 4.2% | Mean % P.E ± S.E (Culex quinquefasciatus; 10 % Conc. in acetone): 100 ± 0% | Mean % P.E ± S.E (Culex quinquefasciatus; 10 % Conc. in acetone, listed as Geranylacetone): 100% | probing activity (feeding) [1, 2]: significantly reduced | relative attraction [1, 2]: caused a reduction in relative attraction | repellency (C. impunctatus midges; all concentrations tested (1%, 0.01% and 0.0001% in ethanol)): effective at all concentrations tested | % repellency compared with DEET (C. impunctatus midges; full 5 min testing period, single compound at 1%): higher % repellency than DEET; these differences were not significant | repellency compared with DEET at 1% (C. impunctatus midges): significantly greater than DEET at 1%

CCCCCCCCC=O [nonanal]
flight activity compared with the untreated hand ([1]; at only one dose): significantly greater flight activity than the untreated hand

CCCCCCCC=O [octanal]
repellent for Ae. aegypti (described previously) (Ae. aegypti): described previously as a repellent
